Measured values: patent EP4635950A1, “NOVEL CRYSTAL FORM OF GLP-1 RECEPTOR AGONIST, METHOD FOR PREPARING SAME, PHARMACEUTICAL COMPOSITION THEREOF, AND USE THEREOF” (Hangzhou Zhongmeihuadong Pharmaceutical Co., Ltd., priority 2022, dated 2024)
Converted amounts (≈) assume the structure as drawn. Like-named read-outs stand apart in the source and are kept apart here.

Columns and labels:
Human GLP-1R = target: T1, Human GLP-1R (Homo sapiens, UniProt P43220); assay: GLP-1R agonistic activity, HTRF cAMP assay in 293A GFP-GLP-1R cells; assay type: cell-based; conditions: cAMP pathway
T1 construct: expressed in transfected cells; host or cells: 293A cells stably expressing GLP-1R-GFP
Source text: The method was a competitive immunoassay.

[1] = Suspension competition test of Crystal Form A and Crystal Form G; assay type: physicochemical; conditions: Crystal Form A and Crystal Form G in EtOH and a mixture of MeOH and water, room temperature and 50°C
[2] = Equilibrium solubility, 24 hours at 37°C in 4 media, with XRPD of residual solid; assay type: physicochemical; conditions: for solubility at 24 h: 37 °C, thermodynamic from solid, read-out: Solubility after 24 h; for Crystal Form: XRPD
Experimental: After 24 hours, samples were taken and centrifuged for separation. The obtained solids were tested by XRPD, and the supernatants were filtered for solubility testing.

[3] = High-temperature stability at 60°C (HPLC purity, crystal form); assay type: physicochemical; conditions: for Purity (% Area) / purity decrease: 60°C
Source text: [table] […] Table E-4: Results of High-Temperature Stability Determination

[4] = High-humidity stability at 90% RH (HPLC purity, crystal form); assay type: physicochemical; conditions: for Purity (% Area) / purity decrease: 90% RH
Source text: [table] […] Table E-5: Results of High-Humidity Stability Determination

[5] = Hygroscopicity by dynamic vapor sorption (DVS) at 25°C; assay type: physicochemical
[6] = Crystal form stability on drying or sealed storage; assay type: physicochemical; conditions: dried at 50°C for 3 hours
Source text: The 4 metastable crystal forms described in Example 4 had lower crystal form stability than each crystal form described in Example 3.

[7] = Pressure stability at 1000 Mpa for 5 minutes (HPLC purity, crystal form); assay type: physicochemical
Source text: [table] […] Table E-6: Results of Pressure Stability Determination

[8] = Solid-state stability under long-term and accelerated conditions (HPLC purity, crystal form); assay type: physicochemical; conditions: for Purity (% Area) / purity decrease: 10 days
Source text: [table] […] Table E-3: Results of Solid-State Stability Determination

T1 sequence (P43220 24-463): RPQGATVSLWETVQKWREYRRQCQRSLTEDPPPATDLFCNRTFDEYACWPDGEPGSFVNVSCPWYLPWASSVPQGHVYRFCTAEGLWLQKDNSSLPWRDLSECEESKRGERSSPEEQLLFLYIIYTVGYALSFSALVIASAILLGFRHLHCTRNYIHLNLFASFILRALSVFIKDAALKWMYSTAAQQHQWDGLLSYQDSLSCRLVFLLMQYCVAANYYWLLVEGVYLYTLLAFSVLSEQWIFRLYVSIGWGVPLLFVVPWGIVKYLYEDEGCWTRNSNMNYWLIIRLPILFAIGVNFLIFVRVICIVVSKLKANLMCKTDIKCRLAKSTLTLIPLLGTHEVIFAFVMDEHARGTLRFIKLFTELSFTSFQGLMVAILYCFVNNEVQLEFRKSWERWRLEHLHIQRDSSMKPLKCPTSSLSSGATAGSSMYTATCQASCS

For `O=C(O)c1ccc2nc(CN3CCC(c4cccc(OCc5ccc(C6COC6)cc5F)n4)CC3)n(C[C@@H]3CCO3)c2c1` [Compound 1, (S)-2-((4-(6-((2-fluoro-4-(oxetan-3-yl)benzyl)oxy)pyridin-2-yl)piperidin-1-yl)methyl)-1-(oxetan-2-ylmethyl)-1H-benzo[d]imidazole-6-carboxylic acid], the “agonistic effect on GLP-1R” value (Human GLP-1R) was “strong agonistic effect”.

For `O=C(O)c1ccc2nc(CN3CCC(c4cccc(OCc5ccc(C6COC6)cc5F)n4)CC3)n(C[C@@H]3CCO3)c2c1` [Crystal Form A, (S)-2-((4-(6-((2-fluoro-4-(oxetan-3-yl)benzyl)oxy)pyridin-2-yl)piperidin-1-yl)methyl)-1-(oxetan-2-ylmethyl)-1H-benzo[d]imidazole-6-carboxylic acid], the “outcome of suspension competition test” value [1] was “transforms into Crystal Form G”, the “Whether the Crystal Form Changed” value ([2]; 24 h in FaSSGF) was “YES” and the “Solubility after 24 h” value ([2]; FaSSGF) was 200 µg/mL (≈ 341 µM). For the same compound, the solubility at 24 h ([2]; FaSSIF (fasted-state simulated intestinal fluid), fassif, FaSSIF) was 50 µg/mL (≈ 85.2 µM), the solubility at 24 h ([2]; FeSSIF (fed-state simulated intestinal fluid), fessif, FeSSIF) was 320 µg/mL (≈ 545 µM) and the solubility at 24 h ([2]; purified water, water, H2O) was under 100 µg/mL. The “Crystal Form” value ([2]; solid after 24 h in FaSSGF) was “a hydrochloride salt was formed”, the “Crystal Form” value ([2]; solid after 24 h in FaSSIF) was “Crystal Form A” and the “Crystal Form” value ([2]; solid after 24 h in FeSSIF) was “Crystal Form A”. For the same compound, the “Crystal Form” value ([2]; solid after 24 h in H2O) was “Crystal Form A”, the “Purity (% Area)” value ([3]; 1 day) was 98.00 % Area and the purity decrease ([3]; 1 day) was “about 0.1%”. The “Purity (% Area)” value ([3]; 10 days) was 96.98 % Area, the purity decrease ([3]; 10 days) was “about 1.1%” and the “Initial Purity (% Area)” value ([3]; initial, before storage) was 98.11 % Area. The “Purity (% Area)” value ([4]; 1 Day) was 97.77 % Area, the purity decrease ([4]; 1 day) was “about 0.3%” and the “Purity (% Area)” value ([4]; 10 days) was 97.07 % Area. The purity decrease ([4]; 10 days) was “about 1.0%”, the “Initial Purity (% Area)” value ([4]; initial, before storage) was 98.11 % Area and the “Sample Weight Change at 80% RH (%)” value [5] was 0.89%. For the same compound, the “crystal form change after drying” value [6] was “no crystal form change is observed”, the “Purity (% Area)” value ([7]; 1000 Mpa, 5 min) was 97.44 % Area and the purity decrease ([7]; 1000 Mpa, 5 min) was “about 0.7%”. The “Initial Purity (% Area)” value ([7]; initial, before pressing) was 98.11 % Area, the “Purity (% Area)” value ([8]; 25°C/60%RH) was 97.50 % Area and the “Purity (% Area)” value ([8]; 40°C/75%RH) was 97.33 % Area. The purity decrease ([8]; accelerated conditions (40°C/75% RH)) was “about 0.8%”, the crystal form change ([8]; before and after testing, long-term and accelerated conditions) was “no crystal form change was observed” and the “Initial Purity (% Area)” value ([8]; initial, before storage) was 98.11 % Area. The purity decrease ([8]; long-term conditions (25°C/60% RH)) was “about 0.6%”.
